Test results as given in ChEMBL document CHEMBL5344418, “Recent developments in antimalarial activities of 4-aminoquinoline derivatives” (Eur J Med Chem, 2023).

Columns and labels:
[1] = Cytotoxicity against African green monkey Vero cells; type: toxicity, cell-based; conditions: chlorocebus sabaeus
[2] = Cytotoxicity against African monkey Vero cells assessed as reduction in cell viability incubated for 72 hrs by MTT assay; type: toxicity, cell-based; conditions: chlorocebus sabaeus
Plasmodium falciparum [3] = experiment: Antimalarial activity against chloroquine-sensitive Plasmodium falciparum 3D7 assessed as reduction in parasite growth incubated for 36 hrs by Giemsa staining based microscopic analysis; type: functional, organism-based; conditions: 3D7, 36 h
Plasmodium falciparum [4] = experiment: Antiplasmodial activity against Plasmodium falciparum K1; type: functional, organism-based
Plasmodium falciparum [5] = experiment: Antiplasmodial activity against Plasmodium falciparum 3D7; type: functional, organism-based
Plasmodium falciparum [6] = experiment: Antimalarial activity against chloroquine-resistant Plasmodium falciparum W2 assessed as growth inhibition incubated for 48 hrs by flow cytometry based analysis; type: functional, organism-based; conditions: W2, 48 h
[7] = Cytotoxicity against African green monkey Vero cells assessed as reduction in cell viability incubated for 24 hrs by fluorescence based analysis; type: toxicity; conditions: African green monkey (Chlorocebus sabaeus)
Plasmodium falciparum [8] = experiment: Antiplasmodial activity against chloroquine-resistant Plasmodium falciparum W2 assessed as parasitic growth inhibition incubated for 72 hrs by SYBR Green staining based fluorescence analysis; type: functional, organism-based; conditions: W2, 72 h
Plasmodium falciparum [9] = experiment: Antiplasmodial activity against chloroquine-sensitive Plasmodium falciparum 3D7 assessed as parasitic growth inhibition incubated for 72 hrs by SYBR Green staining based fluorescence analysis; type: functional, organism-based; conditions: 3D7, 72 h
Plasmodium falciparum [10] = experiment: Antimalarial activity against Plasmodium falciparum Dd2 assessed as reduction in parasitic growth incubated for 48 hrs by SYBR green assay; type: functional, organism-based; conditions: Dd2, 48 h
Plasmodium falciparum [11] = experiment: Antimalarial activity against chloroquine-sensitive Plasmodium falciparum 3D7 assessed as reduction in parasite growth incubated for 72 hrs by SYBR Green staining based fluorescence analysis; type: functional, organism-based; conditions: 3D7, 72 h
Plasmodium falciparum [12] = experiment: Antimalarial activity against chloroquine-resistant Plasmodium falciparum K1 assessed as reduction in parasite growth incubated for 72 hrs by SYBR Green staining based fluorescence analysis; type: functional, organism-based; conditions: K1, 72 h
[13] = Cytotoxicity against African green monkey Vero cells assessed as reduction in cell viability incubated for 72 hrs by MTT assay; type: toxicity, cell-based; conditions: chlorocebus sabaeus
Plasmodium falciparum [14] = experiment: Antiplasmodial activity against Plasmodium falciparum 3D7 assessed as reduction in parasite growth by Lactate dehydrogenase assay; type: functional, organism-based

For N=C(N=C(N)N)SCCCNc1ccnc2cc(C(F)(F)F)ccc12, the CC50 [1] was over 10.6 µM.

Compound O=Cc1ccc(OCc2cn(CC(=O)NCCCNc3ccnc4cc(Cl)ccc34)nn2)cc1 has a CC50 at 72 h [2] of 12.2 µM and an IC50 (Plasmodium falciparum [3]) of 0.91 µM.

O=C(Cn1cc(-c2ccccc2)nn1)NCCCNc1ccnc2cc(Cl)ccc12 showed a CC50 at 72 h [2] of 41.5 µM and an IC50 (Plasmodium falciparum [3]) of 0.137 µM.

COc1ccc(NNc2ccnc3cc(Cl)ccc23)cc1 gave an IC50 (Plasmodium falciparum [4]) of 3.48 µM.

Compound CC(CNC(CCN(Cc1ccccc1)Cc1ccccc1)c1ccccc1)Nc1ccnc2cc(Cl)ccc12 (stereo unspecified) has an IC50 (Plasmodium falciparum [5]) of 2.69 µM.

In the case of O=C1c2cccc(N3CCOCC3)c2C(=O)N1CCCNc1ccnc2cc(Cl)ccc12, the IC50 (Plasmodium falciparum [6]) is reported as 0.276 µM and the IC50 at 24 h [7] is reported as 222 µM.

With OC(c1cc(C(F)(F)F)nc2c(C(F)(F)F)cccc12)C1CCCCN1 (stereo unspecified) [MEFLOQUINE] the IC50 (Plasmodium falciparum [8]) was 0.024 µM.

Work on CC1(C)OB(c2ccc(OCc3cn(CCNc4ccnc5cc(Cl)ccc45)nn3)cc2C=O)OC1(C)C yielded an IC50 (Plasmodium falciparum [8]) of 6.23 µM and an IC50 (Plasmodium falciparum [9]) of 7.37 µM.

For O=C(Cn1cc(COc2ccc(Br)cc2)nn1)NCCCNc1ccnc2cc(Cl)ccc12, the CC50 at 72 h [2] was 75.5 µM and the IC50 (Plasmodium falciparum [3]) was 38.8 µM.

Work on COc1ccc2nc(/C=C/c3ccc([N+](=O)[O-])cc3)cc(N3CCN(C)CC3)c2c1 yielded an IC50 (Plasmodium falciparum [10]) of 0.452 µM.

Compound O=C(Cn1cc(COc2ccc(Br)cc2)nn1)NCCCCCCNc1ccnc2cc(Cl)ccc12 has a CC50 at 72 h [2] of 112 µM and an IC50 (Plasmodium falciparum [3]) of 0.307 µM.

For O=C1c2ccc(N3CCCCC3)cc2C(=O)N1CCCNc1ccnc2cc(Cl)ccc12, the IC50 (Plasmodium falciparum [6]) was 0.176 µM and the IC50 at 24 h [7] was 55.8 µM.

Compound CCN(CC)CCC(NCC(C)Nc1ccnc2cc(Cl)ccc12)c1ccc(C)cc1 (stereo unspecified) has an IC50 (Plasmodium falciparum [5]) of 5.27 µM.

In the case of CC(CNC(CCN(C)C)c1ccccc1)Nc1ccnc2cc(Cl)ccc12 (stereo unspecified), the IC50 (Plasmodium falciparum [5]) is reported as 3.43 µM.

Compound O=C(Cn1cc(COc2ccccc2)nn1)NCCCNc1ccnc2cc(Cl)ccc12 has a CC50 at 72 h [2] of 40.6 µM and an IC50 (Plasmodium falciparum [3]) of 180 µM.

With O=C(Cn1cc(COc2ccc(Cl)cc2)nn1)NCCCNc1ccnc2cc(Cl)ccc12 the CC50 at 72 h [2] was 27.1 µM and the IC50 (Plasmodium falciparum [3]) was 90 µM.

CC(CNC(CCN1CCOCC1)c1ccccc1)Nc1ccnc2cc(Cl)ccc12 (stereo unspecified) showed an IC50 (Plasmodium falciparum [5]) of 2.94 µM.

Work on O=C(Cn1cc(COc2ccc(Cl)cc2)nn1)NCCNc1ccnc2cc(Cl)ccc12 yielded a CC50 at 72 h [2] of 28.9 µM and an IC50 (Plasmodium falciparum [3]) of 0.04 µM.

Compound O=[N+]([O-])c1ccc(NNc2ccnc3cc(Cl)ccc23)cc1 has an IC50 (Plasmodium falciparum [4]) of 3.26 µM.

O=C1c2ccc(N3CCOCC3)cc2C(=O)N1CCCNc1ccnc2cc(Cl)ccc12 gave an IC50 (Plasmodium falciparum [6]) of 0.118 µM and an IC50 at 24 h [7] of 222 µM.

With CN(CCCN1CCCC1)c1ccnc2cc(Cl)ccc12 the IC50 (Plasmodium falciparum [11]) was 0.19 µM, the IC50 (Plasmodium falciparum [12]) was 0.11 µM and the CC50 at 72 h [13] was 80.2 µM.

OB1OCc2ccc(OCc3cn(-c4ccnc5ccc(Cl)cc45)nn3)cc21 gave an IC50 (Plasmodium falciparum [8]) of 5.22 µM and an IC50 (Plasmodium falciparum [9]) of 4.87 µM.

O=C1c2ccc(N3CCCCC3)cc2C(=O)N1CCCCCCNc1ccnc2cc(Cl)ccc12 gave an IC50 (Plasmodium falciparum [6]) of 0.012 µM and an IC50 at 24 h [7] of 25.5 µM.

Compound O=Cc1cc(OCc2cn(CCNc3ccnc4cc(Cl)ccc34)nn2)ccc1Br has an IC50 (Plasmodium falciparum [8]) of 5.07 µM and an IC50 (Plasmodium falciparum [9]) of 4.3 µM.

Compound CC(C)(C)NC(=O)/C=C/c1cccc(Nc2ccnc3cc(Cl)ccc23)c1 has an IC50 (Plasmodium falciparum [14]) of 14.8 µM.

COc1ccc(C(CCN(Cc2ccccc2)Cc2ccccc2)NCC(C)Nc2ccnc3cc(Cl)ccc23)cc1 (stereo unspecified) showed an IC50 (Plasmodium falciparum [5]) of 2.4 µM.

CN(CCCN1CCCC1)c1ccnc2cc(C(F)(F)F)ccc12 showed an IC50 (Plasmodium falciparum [11]) of 0.09 µM, an IC50 (Plasmodium falciparum [12]) of 0.31 µM and a CC50 at 72 h [13] of 78.2 µM.

CC(C)CC(CN1CCOCC1)N(C)c1ccnc2cc(C(F)(F)F)ccc12 (stereo unspecified) showed an IC50 (Plasmodium falciparum [11]) of 2.72 µM, an IC50 (Plasmodium falciparum [12]) of 2.25 µM and a CC50 at 72 h [13] of 68.6 µM.

Cc1ccc(OCc2cn(CC(=O)NCCCNc3ccnc4cc(Cl)ccc34)nn2)cc1 gave a CC50 at 72 h [2] of over 208 µM and an IC50 (Plasmodium falciparum [3]) of 91.9 µM.

Work on CC1(C)OB(c2ccc(OCc3cn(CCCNc4ccnc5cc(Cl)ccc45)nn3)cc2C=O)OC1(C)C yielded an IC50 (Plasmodium falciparum [8]) of 4.64 µM and an IC50 (Plasmodium falciparum [9]) of 5.18 µM.

Work on O=C1c2ccc(N3CCOCC3)cc2C(=O)N1CCNc1ccnc2cc(Cl)ccc12 yielded an IC50 (Plasmodium falciparum [6]) of 0.37 µM and an IC50 at 24 h [7] of 28.6 µM.

In the case of CN(CCCN1CCOCC1)c1ccnc2cc(C(F)(F)F)ccc12, the IC50 (Plasmodium falciparum [11]) is reported as 0.88 µM, the IC50 (Plasmodium falciparum [12]) is reported as 0.82 µM and the CC50 at 72 h [13] is reported as 200 µM.

Compound COc1ccc(C(CCN2CCOCC2)NCC(C)Nc2ccnc3cc(Cl)ccc23)cc1 (stereo unspecified) has an IC50 (Plasmodium falciparum [5]) of 3.89 µM.

For O=C(Cn1cc(COc2ccc(Cl)cc2)nn1)NCCCCCCNc1ccnc2cc(Cl)ccc12, the CC50 at 72 h [2] was 7.41 µM and the IC50 (Plasmodium falciparum [3]) was 263 µM.

O=C1c2cccc(N3CCCCC3)c2C(=O)N1CCNc1ccnc2cc(Cl)ccc12 gave an IC50 (Plasmodium falciparum [6]) of 0.158 µM and an IC50 at 24 h [7] of 28.8 µM.

With C=C[C@H]1CN2CC[C@H]1C[C@H]2[C@H](O)c1ccnc2ccc(OC)cc12 [QUININE] the IC50 (Plasmodium falciparum [8]) was 0.504 µM and the IC50 (Plasmodium falciparum [4]) was 0.83 µM.

COc1ccc2nc(/C=C/c3ccc([N+](=O)[O-])cc3)cc(Nc3ccccc3)c2c1 gave an IC50 (Plasmodium falciparum [10]) of 0.509 µM.

Compound O=C(NNc1ccnc2cc(Cl)ccc12)c1cc(-c2ccccc2)nc2ccccc12 has an IC50 (Plasmodium falciparum [4]) of 0.6 µM.

For O=C(Cn1cc(COc2ccc(Cl)cc2)nn1)NCCCCNc1ccnc2cc(Cl)ccc12, the CC50 at 72 h [2] was 10.9 µM and the IC50 (Plasmodium falciparum [3]) was 92.8 µM.

Compound CN(c1ccnc2cc(C(F)(F)F)ccc12)C(Cc1ccccc1)CN1CCCC1 (stereo unspecified) has an IC50 (Plasmodium falciparum [11]) of 0.68 µM, an IC50 (Plasmodium falciparum [12]) of 1.77 µM and a CC50 at 72 h [13] of 39.2 µM.
